# pKi: −log10 of the molar value.
# Columns and labels:
# LNCaP cells = test: Cellular uptake experiments with 99mTc-labeled ligands in LNCaP cells (with and without 2-PMPA competitor); assay type: cell-based
# Procedure: (§1) Phosphate buffer was prepared from 890 mg Na2PO4.2H2O in 9.5 mL water for injection and 0.5 mL 2 m NaOH. After dissolution of the salts, the buffer was sterile filtered, the pH was determined using pH stripes (pH=11.5-12.0). The labeling mixture consisted of 1 μl precursor solution (1 mg/ml in MeCH/H2O 20:50; approx. 1 nmol), 20 μl phosphate buffer, 10 μl […] (TCEP; 28.7 mg/mL in phosphate buffer; 0.1 molar solution) and 4-10 μL pertechnetate in saline (0.9% NaCl; generator cluate) containing an activity of approx. 7.5 MBq. The mixture was filled to 100 μl with saline (0.9% NaCl; 59-65 μL). The pH of the reaction mixture was 8.0-8.5 (tendency towards 8.5). The mixture was heated at 98° C. for 10 minutes. After cooling to room temperature, the mixture was diluted to 1 mL by addition of saline (0.9% NaCl, ligand concentration 1 μm). An aliquot was analyzed by HPLC to determine the radiochemical yield (RCY) (method B, see example 9). Aliquots of the product mixture containing the ^99mTc-labeled ligand were further diluted to a concentration of approx. 100 nM (precursor) in PBS with and without a 10000 fold excess of 2-(Phosphonomethyl)-pentandioic acid, 2-Phosphonomethyl pentanedioic acid (2-PMPA) as competitor.
# Cellular uptake experiments were conducted in analogy to previously described procedures (Lindner et al., Doi.: 10.2967/jnumed.118.210443). Briefly, LNCaP cells were seeded in 6-Well plates in RPMI medium containing 20% FBS (two day of incubation prior to the experiment) and grown to a confluency of 70-80%. For the uptake experiment, the medium was removed and the cells were incubated with 1 mL of a 1:99 dilution of the 100 nM product mixture dilutions (with and without competitor) described in Example 3. […] The cellular uptake was determined from the activity in the lysed fraction. The unspecific uptake was determined from the cellular uptake of the cells incubated with the ligand in presence of the competitor. […]
# PSMA = target: T1, PSMA (Homo sapiens, UniProt Q04609); test: Competitive binding experiments on LNCaP cells (competitor 2-PMPA), Ki by Cheng-Prusoff; conditions: 1 h, calculated from IC50 with cheng-prusoff equation, values printed in parentheses
# T1 construct: endogenous in cells; host or cells: LNCaP cells
# Procedure: as §1
# For determination of Ki, competitive binding experiments were conducted. […] The cellular uptake was determined from the activity in the lysed fraction.
# T1 sequence (Q04609 whole entry): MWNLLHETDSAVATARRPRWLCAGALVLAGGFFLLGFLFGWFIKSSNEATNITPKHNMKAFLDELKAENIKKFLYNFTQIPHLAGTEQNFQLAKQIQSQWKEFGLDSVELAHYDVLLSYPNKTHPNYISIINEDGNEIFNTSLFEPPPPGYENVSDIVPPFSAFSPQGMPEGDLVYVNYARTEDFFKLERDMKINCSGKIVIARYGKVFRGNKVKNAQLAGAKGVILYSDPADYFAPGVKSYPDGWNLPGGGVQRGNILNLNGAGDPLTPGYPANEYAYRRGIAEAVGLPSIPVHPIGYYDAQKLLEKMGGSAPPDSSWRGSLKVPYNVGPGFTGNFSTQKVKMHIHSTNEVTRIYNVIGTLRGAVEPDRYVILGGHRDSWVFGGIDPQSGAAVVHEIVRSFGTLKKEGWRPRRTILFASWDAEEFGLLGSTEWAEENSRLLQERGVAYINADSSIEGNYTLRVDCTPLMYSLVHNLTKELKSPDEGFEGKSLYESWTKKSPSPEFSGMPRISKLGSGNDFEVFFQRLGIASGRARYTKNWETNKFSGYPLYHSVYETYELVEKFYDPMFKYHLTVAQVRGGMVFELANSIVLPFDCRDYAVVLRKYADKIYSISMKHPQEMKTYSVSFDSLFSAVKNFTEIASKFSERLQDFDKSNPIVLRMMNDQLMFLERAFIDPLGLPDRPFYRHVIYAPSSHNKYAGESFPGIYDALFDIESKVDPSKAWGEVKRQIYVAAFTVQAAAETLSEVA
substance,measurement,setting,value
^99mTc-EDDA-HYNIC-iPSMA [[^99mTc]TLX-598],Specific uptake,"LNCaP cells; 1 h, unspecific uptake subtracted from cellular uptake",18.7 ± 0.3 % AD/10^6 cells
same,Unspecific uptake,"LNCaP cells; 1 h incubation, in presence of 10000 fold excess 2-PMPA",1.64 ± 0.07 % AD/10^6 cells
same,Uptake,"LNCaP cells; 1 h incubation, triplicate",20.3 ± 0.3 % AD/10^6 cells
same,pKi,PSMA,7.42

# — patent US20240238460A1, “IMPROVED PROSTATE-SPECIFIC MEMBRANE ANTIGEN TARGETING RADIOPHARMACEUTICALS AND USES THEREOF” (TELIX PHARMACEUTICALS (INNOVATIONS) PTY LTD, priority 2021, published 2024)
